ChEMBL document CHEMBL1142226, “Impact of physicochemical and structural properties on the pharmacokinetics of a series of alpha1L-adrenoceptor antagonists” (Drug Metab Dispos, 2007)

Legend:
[1] = Fraction unbound in Beagle dog liver microsomes at 1 uM; format: ADME, Canis lupus familiaris, Microsome
[2] = Lipophilicity, log D in 0.1M potassium phosphate buffer at pH 7.4; format: physicochemical
[3] = Plasma clearance in Beagle dog at 0.5 mg/kg, iv; format: ADME, organism-based, Canis lupus familiaris; set-up: dose 0.5 mg/kg, route intravenous
[4] = Oral bioavailability in Beagle dog at 0.5 mg/kg; format: ADME, organism-based, Canis lupus familiaris; conditions: in vivo
Liver microsomes = assay: Unbound intrinsic clearance in human liver microsomes at 1 uM; format: ADME, Microsome
[5] = Oral absorption in Beagle dog at 0.5 mg/kg, po; format: ADME, organism-based, Canis lupus familiaris; set-up: dose 0.5 mg/kg, route oral; conditions: in vivo, read-out: Fabs
[6] = Fraction unbound in human liver microsomes at 1 uM; format: ADME, Microsome
[7] = Metabolic stability in Beagle dog liver microsomes assessed as half life at 1 uM; format: ADME, Canis lupus familiaris, Microsome
[8] = Elimination half life in Beagle dog at 0.5 mg/kg, iv; format: ADME, organism-based, Canis lupus familiaris; set-up: dose 0.5 mg/kg, route intravenous; conditions: in vivo
[9] = Volume of distribution in Beagle dog at 0.5 mg/kg, iv; format: ADME, organism-based, Canis lupus familiaris; set-up: dose 0.5 mg/kg, route intravenous; conditions: in vivo
Canis familiaris [10] = assay: Unbound plasma clearance in Beagle dog at 0.5 mg/kg, iv; format: ADME, organism-based, Canis lupus familiaris; set-up: dose 0.5 mg/kg, route intravenous; conditions: in vivo
Liver = assay: Unbound intrinsic clearance in Beagle dog liver microsomes at 1 uM; format: ADME, Canis lupus familiaris, Microsome
[11] = Protein binding in Beagle dog plasma at 1 ug/ml; format: ADME, cell-free, Canis lupus familiaris; conditions: read-out: PPB (converted)
[12] = Metabolic stability in human liver microsomes assessed as half life at 1 uM; format: ADME, Microsome
[13] = Dissociation constant, pKa of the compound; format: physicochemical
Canis familiaris [14] = assay: Unbound volume of distribution in Beagle dog at 0.5 mg/kg, iv; format: ADME, organism-based, Canis lupus familiaris; set-up: dose 0.5 mg/kg, route intravenous; conditions: in vivo
[15] = Plasma clearance in Sprague-Dawley rat at 0.5 mg/kg, iv; format: ADME, organism-based; set-up: dose 0.5 mg/kg, route intravenous
Rattus norvegicus [16] = assay: Unbound volume of distribution in Sprague-Dawley rat at 0.5 mg/kg, iv; format: ADME, organism-based; set-up: dose 0.5 mg/kg, route intravenous; conditions: in vivo
[17] = Elimination half life in human at 0.86 mg/kg, po; format: ADME, organism-based; set-up: dose 0.86 mg/kg, route oral; conditions: in vivo
[18] = Oral bioavailability in Beagle dog at 4 mg/kg; format: ADME, organism-based, Canis lupus familiaris; conditions: in vivo
[19] = Oral absorption in Beagle dog at 4 mg/kg, po; format: ADME, organism-based, Canis lupus familiaris; set-up: dose 4 mg/kg, route oral; conditions: in vivo, read-out: Fabs
[20] = Elimination half life in Sprague-Dawley rat at 4 mg/kg, po; format: ADME, organism-based; set-up: dose 4 mg/kg, route oral; conditions: in vivo
[21] = Tmax in Sprague-Dawley rat at 4 mg/kg, po; format: ADME, organism-based; set-up: dose 4 mg/kg, route oral; conditions: in vivo
[22] = Protein binding in Sprague-Dawley rat plasma at 1 ug/ml; format: ADME, cell-free; conditions: read-out: PPB (converted)
[23] = Cmax in human at 0.86 mg/kg, po; format: ADME, organism-based; set-up: dose 0.86 mg/kg, route oral; conditions: in vivo
[24] = Tmax in human at 0.86 mg/kg, po; format: ADME, organism-based; set-up: dose 0.86 mg/kg, route oral; conditions: in vivo
[25] = Cmax in Sprague-Dawley rat at 4 mg/kg, po; format: ADME, organism-based; set-up: dose 4 mg/kg, route oral; conditions: in vivo
Homo sapiens = species on record: Homo sapiens; assay: Protein binding in human plasma at 1 ug/ml; conditions: read-out: PPB (converted)
[26] = Oral bioavailability in Sprague-Dawley rat at 4 mg/kg; format: ADME, organism-based; conditions: in vivo
[27] = Elimination half life in Sprague-Dawley rat at 0.5 mg/kg, iv; format: ADME, organism-based; set-up: dose 0.5 mg/kg, route intravenous; conditions: in vivo
[28] = Volume of distribution in Sprague-Dawley rat at 0.5 mg/kg, iv; format: ADME, organism-based; set-up: dose 0.5 mg/kg, route intravenous; conditions: in vivo
Rattus norvegicus [29] = assay: Unbound plasma clearance in Sprague-Dawley rat at 0.5 mg/kg, iv; format: ADME, organism-based; set-up: dose 0.5 mg/kg, route intravenous; conditions: in vivo
[30] = Volume of distribution in Sprague-Dawley rat at 3 mg/kg, iv; format: ADME, organism-based; set-up: dose 3 mg/kg, route intravenous; conditions: in vivo
[31] = Drug uptake in Sprague-Dawley rat hepatocytes; format: ADME, cell-based, Hepatocyte
Hepatocyte = assay: Drug uptake in Sprague-Dawley rat hepatocytes assessed per 10^6 cells; format: ADME, cell-based
[32] = Elimination half life in Sprague-Dawley rat at 3 mg/kg, iv; format: ADME, organism-based; set-up: dose 3 mg/kg, route intravenous; conditions: in vivo
[33] = Metabolic stability in Sprague-Dawley rat liver microsomes assessed as half life; format: ADME, Microsome
Rattus norvegicus [34] = assay: Unbound volume of distribution in Sprague-Dawley rat at 3 mg/kg, iv; format: ADME, organism-based; set-up: dose 3 mg/kg, route intravenous; conditions: in vivo
[35] = Plasma clearance in Sprague-Dawley rat at 3 mg/kg, iv; format: ADME, organism-based; set-up: dose 3 mg/kg, route intravenous
[36] = Metabolic stability in Sprague-Dawley rat bile assessed as drug remaining; format: ADME
[37] = Metabolic stability in Sprague-Dawley rat assessed as hepatic extraction ratio; format: ADME, tissue-based; conditions: liver
Rattus norvegicus [38] = assay: Unbound plasma clearance in Sprague-Dawley rat at 3 mg/kg, iv; format: ADME, organism-based; set-up: dose 3 mg/kg, route intravenous; conditions: in vivo
[39] = Oral bioavailability in Beagle dog at 2 mg/kg; format: ADME, organism-based, Canis lupus familiaris; conditions: in vivo
[40] = Oral absorption in Beagle dog at 2 mg/kg, po; format: ADME, organism-based, Canis lupus familiaris; set-up: dose 2 mg/kg, route oral; conditions: in vivo, read-out: Fabs

| Structure (SMILES) | fraction unbound at 1 µM [1] | logD [2] | clearance [3] | CL (Liver microsomes) | fraction unbound at 1 µM [6] | half-life at 1 µM [7] | half-life [8] | Vd [9] | CL (Canis familiaris [10]) | CL (Liver) | fraction unbound at 1 ug/ml [11] | half-life at 1 µM [12] | pKa [13] | Vd (Canis familiaris [14]) | fraction unbound at 1 ug/ml [22] | fraction unbound at 1 ug/ml (Homo sapiens) | half-life [33] | Stability [36] | hepatic extraction ratio [37] | bioavailability [39] | other results |
| --- | --- | --- | --- | --- | --- | --- | --- | --- | --- | --- | --- | --- | --- | --- | --- | --- | --- | --- | --- | --- | --- |
| COc1cc2nc(N3CCc4ncccc4C3)nc(N)c2c(-c2ncccn2)c1OC | 1 | 2.1 | 40 mL/min/kg | 12 mL/min/kg | 0.823 | 0.6 h | 1.5 h | 5.1 L/kg | 450 mL/min/kg | 50 mL/min/kg | 0.45 | 0.517 h | 6.5 | 11 L/kg | – | – | – | – | – | – | bioavailability [4]: 28%; Fa [5]: 100% |
| COc1cc2nc(N3CCCN(C(=O)N4CCOCC4)CC3)cc(N)c2c(-c2ccc(F)cc2)c1OC | 0.602 | 1.8 | 15 mL/min/kg | 154 mL/min/kg | 0.331 | 0.5 h | 6.3 h | 4.8 L/kg | 536 mL/min/kg | 100 mL/min/kg | 0.04 | 0.1 h | 8.5 | 96 L/kg | 0.08 | 0.06 | – | – | – | – | clearance [15]: 91 mL/min/kg; Vd (Rattus norvegicus [16]): 70 L/kg; half-life [17]: 12 h; bioavailability [18]: 71%; Fa [19]: 100%; half-life [20]: 2.8 h; Tmax [21]: 4 h; Cmax [23]: 63 ng/mL; Tmax [24]: 0.7 h; Cmax [25]: 14 ng/mL; bioavailability [26]: 11%; half-life [27]: 1 h; Vd [28]: 5.6 L/kg; CL (Rattus norvegicus [29]): 61250 mL/min/kg |
| COc1cc2nc(N3CCCN(C(=O)N4CCOCC4)CC3)nc(N)c2c(-c2ccccn2)c1OC | 0.939 | 1.5 | 20 mL/min/kg | 34 mL/min/kg | 1 | 0.767 h | 1.6 h | 2.2 L/kg | 60 mL/min/kg | 41 mL/min/kg | 0.56 | 0.15 h | 6.9 | 4 L/kg | – | – | – | – | – | 63% | Fa [40]: 100% |

Now from value to compound, other results behind:

| fraction unbound at 1 µM [1] | logD [2] | clearance [3] | CL (Liver microsomes) | fraction unbound at 1 µM [6] | half-life at 1 µM [7] | half-life [8] | Vd [9] | CL (Canis familiaris [10]) | CL (Liver) | fraction unbound at 1 ug/ml [11] | half-life at 1 µM [12] | pKa [13] | Vd (Canis familiaris [14]) | fraction unbound at 1 ug/ml [22] | fraction unbound at 1 ug/ml (Homo sapiens) | half-life [33] | Stability [36] | hepatic extraction ratio [37] | bioavailability [39] | Structure (SMILES) | other results |
| --- | --- | --- | --- | --- | --- | --- | --- | --- | --- | --- | --- | --- | --- | --- | --- | --- | --- | --- | --- | --- | --- |
| – | 4 | 47 mL/min/kg | – | – | – | 2.4 h | 10 L/kg | 470 mL/min/kg | – | 0.1 | – | 6.2 | 100 L/kg | 0.05 | 0.03 | > 2 h | 90% | 0.7 | – | COc1cc2c(cc1OC)CN(c1nc(N3CCCN(C(=O)N4CC(O)C(O)C4)CC3)nc3cc(OC)c(OC)cc13)CC2 (stereo unspecified) | Vd [30]: 9.3 L/kg; Km [31]: 6.5 µM; Vmax (Hepatocyte): 481 pmol/min; half-life [32]: 1.4 h; Vd (Rattus norvegicus [34]): 186 L/kg; clearance [35]: 135 mL/min/kg; CL (Rattus norvegicus [38]): 2700 mL/min/kg |
| 0.791 | 2.1 | 23 mL/min/kg | 96 mL/min/kg | 0.637 | 0.233 h | 2.3 h | 4.3 L/kg | 200 mL/min/kg | 162 mL/min/kg | 0.22 | 0.0833 h | 6.6 | 20 L/kg | – | – | – | – | – | 35% | COc1cc2nc(N3CCCN(C(=O)N4CCOCC4)CC3)nc(N)c2cc1-c1ccccn1 | Fa [40]: 65% |
| – | – | – | – | – | – | – | – | – | – | – | – | – | – | – | – | > 2 h | 100% | 0.7 | – | COc1cc2nc(N3CCCN(C(=O)N4CC(O)C(O)C4)CC3)nc(Nc3ccccn3)c2cc1OC (stereo unspecified) | – |
